Experimental data from patent US20240368123A1, “AROMATIC RING-CONTAINING BIOLOGICAL ANTAGONIST, AND PREPARATION METHOD THEREFOR AND USE THEREOF” (SHANGHAI HANSOH BIOMEDICAL CO., LTD., priority 2021, published 2024).

Columns and labels:
AT1 receptors = target: T1, AT1 receptors (Homo sapiens, UniProt P30556); assay: Effect on calcium current in cells stably expressing AT1 receptors (FLIPR, antagonist mode); type: cell-based; details: HEK293-AT1 cells, Fluo-8 AM, FLIPR Tetra; read-out: IC50 values of compounds on calcium current in cells stably expressing AT1 receptors
T1 construct: host or cells: HEK293
T1 sequence (P30556 1-359): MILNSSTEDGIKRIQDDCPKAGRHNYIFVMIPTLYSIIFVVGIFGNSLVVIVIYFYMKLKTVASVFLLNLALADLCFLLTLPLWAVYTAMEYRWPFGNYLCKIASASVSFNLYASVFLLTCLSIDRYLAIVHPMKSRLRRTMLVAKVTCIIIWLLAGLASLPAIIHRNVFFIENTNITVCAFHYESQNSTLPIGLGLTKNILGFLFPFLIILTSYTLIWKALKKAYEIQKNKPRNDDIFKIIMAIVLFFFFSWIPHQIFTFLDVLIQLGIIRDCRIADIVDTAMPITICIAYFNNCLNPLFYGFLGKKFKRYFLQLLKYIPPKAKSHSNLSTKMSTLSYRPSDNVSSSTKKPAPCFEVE
Source text: Test Example 1. Determination of the Effect of the Compounds of the Present Invention on Calcium Current in Cells Stably Expressing AT1 Receptors
Antagonistic effect of test compounds on HEK293-AT1 cell activity
• DMEM, high glucose (Gibco: 12100); • Fetal bovine serum (Biosera: FB-1058/500); • P/S (Biosera: XC-A4122); • 5× Matrigel (Corning: 354230); • HBSS (Sigma: H1387); • HEPES (Invitrogen: 15630080); • Fluo-8 AM (AAT Bioquest: 21080); • Probenecid (Sigma: P8761); • Pluronic F-127 (Sigma: P2443-250G); • Angiotensin III TFA (MCE: HY-113035A); • Irbesartan (MCE: HY—B0202); • 1000× Fluo-8 AM (2 mM): Fluo-8 AM was dissolved in DMSO, the mixture was shaken for 1-2 min, sub-packaged and stored at −20° C.; • Complete culture medium: DMEM+10% FBS+1×P/S; • Cell seeding medium: DMEM+10% FBS+1×PS; • Experimental buffer 1: 1×HBSS+20 mM HEPES+1 mM Probenecid+0.025% Pluronic F-127; • Experimental buffer 2: 1×HBSS+20 mM HEPES+0.075% Pluronic F-127; • 1× Matrigel: 5× Matrigel was diluted with DMEM; • Cell line: HDB HEK293-AT1.
• 1) HEK293-AT1 cell line was cultured in complete culture medium at 37° C., 5% CO2 to 70%-90% confluence. • 2) the 384-well cell plate was coated with 1× Matrigel with 5 μL/well at room temperature for 10 to 30 min. • 3) the cells were digested and resuspended in cell seeding medium, inoculation was performed at 8,000 cells/well/20 μL in a 384-well cell culture plate, and the cells were cultured at 37° C., 5% CO2 for 24 h. • 4) the cell culture plate was taken out of the CO2 incubator and equilibrated at room temperature for 10 min. • 5) 1000× Fluo-8 AM was taken and diluted to 1× Fluo-8 AM with experimental buffer 1 that has been equilibrated to room temperature, with a concentration of 2 μM. • 6) the culture medium was removed from the cell culture plate, 20 μL of 1× Fluo-8 AM was added to each well, the mixture was centrifuged at 300 rpm for 60 seconds at room temperature, and incubated at room temperature in the dark for 1 h. • 7) positive control compound and test compound working solution (3×) were formulated: • (1) instrument Bravo was used to dilute the compound to 11 concentration points on the 384-well Echo compound plate (LABCYTE: LP-0200); • (2) instrument ECHO was used to transfer 90 nL of compound per well (compound storage concentration, such as the highest concentration point 10 mM) to the 384-well compound plate (PE: 6008590); • (3) Multidrop Combi was used to add 30 μL of experimental buffer 2 to the 384-well compound plate (PE: 6008590), the positive control compound and test compound were diluted to 30 μM (3×), and placed at room temperature until use. • 8) FLIPR Tetra was used to add 10 μL of diluted 3× compound into the experimental well of the corresponding 384-well cell plate, the compound and cells were incubated for 10 min at room temperature, then 10 μL of diluted 4× agonist was added, and the data was read and collected at the same time.
FLIPR Tetra was used to read and collect the fluorescence signal value (RFU). The maximum RFU value was used to calculate the percent activation data based on the readings of the Low control (DMSO control) and High control (100 nM positive compound) experimental groups {% activation rate=(RFUsample−RFUlow control)/(RFUhigh control−RFUlow control)×100}. The concentration of the test compound was 11 concentrations after diluting the reaction system 3 times, ranging from 10 uM to 0.17 nM.

[1] = Rat pharmacokinetic evaluation test, oral administration; type: in vivo; details: male, SD rats, p.o. 5 mg/kg, plasma
Experimental: SD rats were used as test animals to study the pharmacokinetic behavior of the compounds of the present invention in the rat body (plasma) after oral administration at a dose of 5 mg/kg.
3 SD rats/group, male, from Shanghai Jiesijie Experimental Animal Co., Ltd., animal production license number (SCXK (Shanghai) 2013-0006 N0.311620400001794).
• 0.5% CMC-Na (1% Tween80) was dissolved with ultrasound, and formulated into a clear solution or homogeneous suspension.
• p.o. respectively after the rats were fasted overnight; • the p.o. dose was 5 mg/kg and the administration volume was 10 mL/kg.
After oral administration of rats, 0.2 mL of blood was collected from the jugular vein at 0.25 h, 0.5 h, 1.0 h, 2.0 h, and 4.0 h, placed in an EDTA-2K test tube, centrifuged at 6000 rpm for 6 min at 4° C. to separate plasma which was stored at −80° C.; the rats can eat 4 h after administration.
• 1) 160 μL of acetonitrile was added to 40 μL of plasma sample for precipitation, mixed and centrifuged at 3500×g for 5 to 20 min. • 2) the treated supernatant solution was taken and subjected to LC/MS/MS to analyze the concentrations of the test compounds. LC/MS/MS analysis instrument: AB Sciex API 4000 Qtrap.
• Liquid phase conditions: Shimadzu LC-20AD pump • chromatographic column: AgilentZORBAX XDB-C18 (50×2.1 mm, 3.5 μm) mobile phase: liquid A was 0.1% aqueous formic acid solution, liquid B was acetonitrile • flow rate: 0.4 mL/min • Elution time: 0-4.0 min, the eluent was as follows:
The main pharmacokinetic parameters were calculated using WinNonlin 6.1.

SMILES	IC50 (AT1 receptors) [nM]	further results
CCCCC1=NC2(CCCC2)C(=O)N1Cc1ccc(-c2ccccc2S(=O)(=O)Nc2noc(C)c2C)c(COC2CC2)c1 [Example 13, 4′-((2-butyl-4-oxo-1,3-diazaspiro[4.4]non-1-en-3-yl)methyl)-2′-(cyclopropoxymethyl)-N-(4,5-dimethylisoxazol-3-yl)-[1,1′-biphenyl]-2-sulfonamide]	10	
CCCCC1=NC2(CCCC2)C(=O)N1Cc1ccc(-c2ccccc2S(=O)(=O)Nc2noc(C)c2Cl)c(OCCC)c1 [Example 55, 4′-((2-butyl-4-oxo-1,3-diazaspiro[4.4]non-1-en-3-yl)methyl)-N-(4-chloro-5-methylisoxazol-3-yl)-2′-propoxy-[1,1′-biphenyl]-2-sulfonamide]	3.7	
CCCCC1=NC2(CCCC2)C(=O)N1Cc1ccc(-c2ccccc2S(=O)(=O)Nc2noc(C)c2C)c(COCC2CC2)c1 [Example 14, 4′-((2-butyl-4-oxo-1,3-diazaspiro[4.4]non-1-en-3-yl)methyl)-2′-((cyclopropylmethoxy)methyl)-N-(4,5-dimethylisoxazol-3-yl)-[1,1′-biphenyl]-2-sulfonamide]	6.9	AUC(0-inf) [1]: 11300 ng·h/mL; Cmax [1]: 2320 ng/mL; Tmax [1]: 0.5 h; MRT inf ([1]; read-out: MRT0-∞): 5.3 h
CCCCC1=NC2(CCCC2)C(=O)N1Cc1ccc(-c2ccccc2S(=O)(=O)Nc2noc(C)c2Cl)c(COC2CC2)c1 [Example 52, 4′-((2-butyl-4-oxo-1,3-diazaspiro[4.4]non-1-en-3-yl)methyl)-N-(4-chloro-5-methylisoxazol-3-yl)-2′-(cyclopropoxymethyl)-[1,1′-biphenyl]-2-sulfonamide]	8.6	
CCCCC1=NC2(CCCC2)C(=O)N1Cc1ccc(-c2ccccc2S(=O)(=O)Nc2noc(C)c2Cl)c(COCC2CC2)c1 [Example 85, 4′-((2-butyl-4-oxo-1,3-diazospiro[4.4]non-1-en-3-yl)methyl)-N-(4-chloro-5-methylisoxazol-3-yl)-2′-((cyclopropylmethoxy)methyl)-[1,1′-biphenyl]-2-sulfonamide]	5.2	
CCCCC1=NC2(CCCC2)C(=O)N1Cc1ccc(-c2ccccc2S(=O)(=O)Nc2noc(C)c2Cl)c(COC)c1 [Example 53, 4′-((2-butyl-4-oxo-1,3-diazaspiro[4.4]non-1-en-3-yl)methyl)-N-(4-chloro-5-methylisoxazol-3-yl)-2′-(methoxymethyl)-[1,1′-biphenyl]-2-sulfonamide]	9.1	
CCCCC1=NC2(CCCC2)C(=O)N1Cc1ccc(-c2ccccc2S(=O)(=O)Nc2noc(C)c2Cl)c(COC(C)C)c1 [Example 72, 4′-((2-butyl-4-oxo-1,3-diazaspiro[4.4]non-1-en-3-yl)methyl)-N-(4-chloro-5-methylisoxazol-3-yl)-2′-(isopropoxymethyl)-[1,1′-biphenyl]-2-sulfonamide]	6.1	
